In data set [1] the test system is men and women with OAB. The data set can be described thus: Phase 2b study in OAB, efficacy (voiding diary). Format: in vivo, human. The settings on record: tolterodine ER 4 mg once daily. The text has this:
Part 2 was designed to continue to assess the safety and efficacy of concomitant dosing. […] Subjects in both Part 1 and Part 2 had the option of enrolling in a 1-year extension. Participants were required to keep a voiding diary, recording the occurrence of each strong urge, total incontinence, and urge incontinence episode. Efficacy data for Part 1 and Part 2 are summarized herein.
The total number of urgency incontinence episodes must have exceeded the total number of stress incontinence episodes for all subjects.

In data set [2] the test system is patients with overactive bladder. An excerpt: A placebo group was included in the main study, and a group that received tolterodine monotherapy was included in the main study and in the extension.
Data set [3] shares this test system. The data set can be described thus: Phase 2b 52-week extension safety. The following applies: tolterodine ER 4 mg. The class given is in vivo, human. The text has this:
There were no deaths reported during the study.

Data set [4] concerns patients with OAB. The data set can be described thus: Phase 2b vital sign changes (HR, SBP, DBP). The settings on record: Tolterodine 4 mg. The class given is in vivo, human. An excerpt:
None led to discontinuation. The overall incidence of orthostatic symptoms was low.
Small differences in the percent of subjects exceeding categorical heart rate and blood pressure thresholds for vibegron were similar to those in the tolterodine arm.

Data set [5] is described as follows: mass balance study with [14C]vibegron in healthy subjects. The following applies: human plasma at 2 and 4 hr.
In data set [6] the test system is healthy subjects. The data set can be described thus: thorough QT single oral dose study. Format: in vivo, human. The following applies: single dose of moxifloxacin 400 mg.
Where [7] appears, read: Tolterodine ER 4 mg, N = 257, first 12 weeks.

`Cc1ccc(O)c([C@H](CCN(C(C)C)C(C)C)c2ccccc2)c1` [Tolterodine ER, tolterodine]: in data set [1] (OAB Wet subjects), the “Total Incontinence Episodes, change from baseline Week 8, mean” value is listed as −1.80; the “Total Incontinence Episodes, daily number, Week 8 mean” value was 1.32; the “Total Incontinence Episodes, difference from placebo Week 8, LS means” value is reported as −0.34; the “Urgency Incontinence Episodes, change from baseline Week 8, mean” value is on record as −1.67. In addition, in data set [1] (OAB Wet subjects), the “Urgency Incontinence Episodes, daily number, Week 8 mean” value was 1.15 and the “Urgency Incontinence Episodes, difference from placebo Week 8, LS means” value is −0.46. Besides, in data set [1] (Part 1), the “Micturitions, change from baseline Week 8, mean” value was −1.73; the “Micturitions, daily number, Week 8 mean” value was determined as 9.24; the “Micturitions, difference from placebo Week 8, LS means” value is on record as −0.54; the “Urgency Episodes, change from baseline Week 8, mean” value is listed as −2.52. Further, in data set [1] (Part 1), the “Urgency Episodes, daily number, Week 8 mean” value came to 3.91 and the “Urgency Episodes, difference from placebo Week 8, LS means” value is listed as −0.94. The “change from baseline in volume voided per micturition, difference from placebo in LS means” value in data set [1] (Week 8) was found to be 30.77 mL. The frequency of injuries in data set [2] (Phase 2 program) worked out at 2.1%. Also, in data set [2] (setting [7]), the “Accidental overdose, %” value is “(2.3) %”; the “Alanine aminotransferase increased, %” value is reported as “(0.4) %”; the “Arthralgia, %” value is on record as “(1.2) %”; the “Aspartate aminotransferase increased, %” value is “(0.0) %”. Besides, in data set [2] (setting [7]), the “Constipation, %” value is listed as “(1.9) %”; the “Diarrhea, %” value was “(3.5) %”; the “Discontinuation due to AE, %” value was “(1.6) %”; the “Dizziness, %” value was “(1.9) %”. In data set [2] (setting [7]), the “Drug-related AE, %” value is “(16.3) %”; the “Dry eye, %” value is listed as “(3.9) %”; the “Dry mouth, %” value is “(8.6) %”; the “Dysuria, %” value is “(1.2) %”. Also, in data set [2] (setting [7]), the “Fatigue, %” value is recorded as “(2.3) %”; the “Headache, %” value is “(3.5) %”; the “Nasopharyngitis, %” value was “(1.6) %”; the “Nausea, %” value is recorded as “(2.3) %”. Further, in data set [2] (setting [7]), the “Osteoarthritis, %” value was “(0.0) %”; the “Pain in extremity, %” value is given as “(0.4) %”; the “Serious AE, %” value was “(1.2) %”; the “Sinusitis, %” value is recorded as “(0.4) %”. Besides, in data set [2] (setting [7]), the “Urinary tract infection, %” value is listed as “(4.7) %” and the “≥1 AE, %” value is “(45.1) %”. Further, in data set [2] (groups that received tolterodine (alone or with vibegron), main study), the “incidence of dry mouth compared to placebo or vibegron monotherapy groups” value is “higher”. In data set [2] (tolterodine 4 mg, main study), this compound came in with an SAEs reported of 3. In addition, in data set [3], the “drug-related SAE” value is recorded as “one drug-related SAE of ileus paralytic” and the “incidence of dry mouth compared to the other treatment groups” value is “higher”. Besides, in data set [4], the “DBP change from baseline, mean (95% CI) Max, week 1 to 8” value was 5.19 (4.26, 6.13) mm Hg; the “DBP change from baseline, mean (95% CI), week 1” value was −0.12 (−1.10, 0.86) mm Hg; the “HR change from baseline, mean (95% CI) maximum, week 1 to 8” value was 5.66 (4.69, 6.63) bpm; the “HR change from baseline, mean (95% CI), week 1” value was 0.68 (−0.31, 1.67) bpm. For the same compound, in data set [4], the “SBP change from baseline, mean (95% CI) maximum, week 1 to 8” value is 7.29 (6.01, 8.57) mm Hg and the “SBP change from baseline, mean (95% CI), week 1” value is 0.04 (−1.36, 1.43) mm Hg.

In the case of `O=C(O)C1OC(OC(c2ccccc2)C2CCC(Cc3ccc(NC(=O)C4CCc5nccc(=O)n54)cc3)N2)C(O)C(O)C1O` (stereo not drawn) [M7], the “share of total circulating drug-related material” value in data set [5] is recorded as 12-14%.

Regarding `COc1c(N2C[C@@H]3CCCN[C@@H]3C2)c(F)cc2c(=O)c(C(=O)O)cn(C3CC3)c12` [moxifloxacin, reference compound], the “effect on QTcF” value in data set [6] was “statistically significant effect”.

The values are drawn from patent US12102638B2 (Urovant Sciences GmbH, priority 2017, dated 2024).
